2 molecules from article PMC7435722, “Apoferritin and Apoferritin-Capped Metal Nanoparticles Inhibit Arginine Kinase of Trypanosoma brucei” (Molecules, 2020) can be followed below.

This assay relates to T1, arginine kinase of T. brucei (recombinant form).
T1 construct: gene AK1; recombinant, obtained from Rhodes University laboratory
In words: phosphate release, molybdate colorimetric […] nm, nonlinear Michaelis-Menten fit. The assay is classed as biochemical, Trypanosoma brucei. To be noted: no inhibitor, Mg sulfate, 100 mM Tris-HCl pH 8.6, 30 °C.

Where two headings read alike, the source gives them in different places.

In the case of `Nc1ncnc2c1ncn2[C@@H]1O[C@H](COP(=O)(O)OP(=O)(O)OP(=O)(O)O)[C@@H](O)[C@H]1O` [ATP], for the setting “2 mM L-arginine fixed, ATP 0.1-0.5 mM, read-out: Km (ATP)”, the Km (in general, the concentration of substrate that gives half-maximal velocity) was determined as 5 µM. Take `N=C(N)NCCC[C@H](N)C(=O)O` [L-arginine]: for the setting “0.5 mM ATP fixed, L-arginine 0.5-2.5 mM, read-out: Km (L-arginine)”, the Km is 21 ± 10 µM.
